The text below walks through data of patent US20050197350A1, “Novel quinoline, tetrahydroquinazoline, and pyrimidine derivatives and methods of treatment related to the use thereof” (TAISHO PHARMACEUTICAL CO., LTD., priority 2003, published 2005).

In the first experiment the test system is MCH receptors. In words: MCH receptor activity class (method not given).
Conditions: not given
Turning to `COc1cccc(OCC(=O)N[C@H]2CC[C@@H](Nc3cc(C)c4ccccc4n3)CC2)c1` [Example 2554, 2-(3-methoxyphenoxy)-N-{cis-4-[(4-methylquinolin-2-yl)amino]cyclohexyl}acetamide], the class is 1.

Staying with this experiment, now noted: MCH receptor activity class 1-3 (percent of control at 10^-7 M or IC50).
For `CN(C)c1ccnc(N[C@H]2CC[C@@H](CNC(=O)Nc3ccccc3Cl)CC2)n1` [compound 2405], the class is reported as 3 (Class 3 The value of percent of control at 10^−7 M was more than 60% or the value of IC50 was more than 200 nM.).
Take `CN(C)c1cc(N[C@H]2CC[C@@H](CNC(=O)Nc3c(Cl)cccc3C(F)(F)F)CC2)nc2ccccc12` [compound 2373]: the class is recorded as 2 (Class 2: The value of percent of control at 10^−7 M was from 40% to 60% or the value of IC′50 was from 50 nM to 200 nM.).
On the same count and under the same terms, the value for `CN(C)c1cc(N[C@H]2CC[C@@H](CNC(=O)Nc3cccc(Cl)c3Cl)CC2)nc2ccccc12` [compound 2394] was 2 (Class 2: The value of percent of control at 10^−7 M was from 40% to 60% or the value of IC′50 was from 50 nM to 200 nM.); that for `Cc1ccccc1NC(=O)NC[C@H]1CC[C@@H](Nc2nccc(N(C)C)n2)CC1` [compound 2414] was 3 (Class 3 The value of percent of control at 10^−7 M was more than 60% or the value of IC50 was more than 200 nM.).
Take `Cc1c(Cl)cccc1NC(=S)N[C@H]1CC[C@@H](Nc2cc(N(C)C)c3ccccc3n2)CC1` [compound 2306]: the class is on record as 3 (Class 3 The value of percent of control at 10^−7 M was more than 60% or the value of IC50 was more than 200 nM.).
Same read-out and setting: as for `CN(C)c1cc(N[C@H]2CC[C@@H](CNC(=O)Nc3ccccc3Cl)CC2)nc2ccccc12` [compound 2359], the figure is 3 (Class 3 The value of percent of control at 10^−7 M was more than 60% or the value of IC50 was more than 200 nM.).

The experiment is the same for the next values; noted with them: MCH receptor; class by percent of control at 10^-7 M or IC50.
Regarding `CN(C)c1nc(N[C@H]2CC[C@@H](NC(=S)NCc3ccc4c(c3)OCO4)CC2)nc2c1CCCC2` [compound 1946], the class is 3 (Class 3 The value of percent of control at 10^−7 M was more than 60% or the value of IC50 was more than 200 nM.).

Still in this experiment, the particulars now being: activity class 1-3: percent of control at 10^-7 M or IC50.
`COc1ccccc1OC(=O)NC[C@H]1CC[C@@H](Nc2nccc(N(C)C)n2)CC1` [compound 1644]: the class is recorded as 3 (Class 3 The value of percent of control at 10^−7 M was more than 60% or the value of IC50 was more than 200 nM.).
On the same count and under the same terms, the value for `CN(C)c1cc(N[C@H]2CC[C@@H](CNC(=O)OCc3ccccc3Cl)CC2)nc2ccccc12` [compound 1576] was 3 (Class 3 The value of percent of control at 10^−7 M was more than 60% or the value of IC50 was more than 200 nM.).

Still in this experiment, the particulars now being: activity class per percent of control at 10^-7 M or IC50.
On to `CN(C)c1nc(N[C@H]2CC[C@@H](NC(=O)CC(c3ccccc3)c3ccccc3)CC2)nc2c1CCCC2` [compound 1032], for which the class is on record as 3 (Class 3 The value of percent of control at 10^−7 M was more than 60% or the value of IC50 was more than 200 nM.).
Still for that read-out and setting: the value for `Cc1sc(-c2ccccc2)nc1CC(=O)N[C@H]1CC[C@@H](Nc2nc3c(c(N(C)C)n2)CCCC3)CC1` [compound 987] was 3 (Class 3 The value of percent of control at 10^−7 M was more than 60% or the value of IC50 was more than 200 nM.).

The same experiment, now with this note: class 1-3 by percent of control at 10^-7 M or IC50.
As to `CN(C)c1nc(N[C@H]2CC[C@@H](NC(=O)c3cccc(OC(F)(F)F)c3)CC2)nc2c1CCCC2` [compound 490], the class was 2 (Class 2: The value of percent of control at 10^−7 M was from 40% to 60% or the value of IC′50 was from 50 nM to 200 nM.).
The same measure, in the same setting: the value for `CN(C)c1nc(N[C@H]2CC[C@@H](NC(=O)c3cc4ccccc4s3)CC2)nc2c1CCCC2` [compound 530] was 3 (Class 3 The value of percent of control at 10^−7 M was more than 60% or the value of IC50 was more than 200 nM.); that for `CN(C)c1ccnc(N[C@H]2CC[C@@H](CNC(=O)c3c(F)cccc3F)CC2)n1` [compound 447] was 3 (Class 3 The value of percent of control at 10^−7 M was more than 60% or the value of IC50 was more than 200 nM.).

The experiment is the same for the next values; noted with them: class by percent of control at 10^-7 M or IC50.
In the case of `CC(C)Oc1ccc(CNC[C@H]2CC[C@@H](Nc3cc(N(C)C)c4ccccc4n3)CC2)cc1` [compound 1156], the class is listed as 3 (Class 3 The value of percent of control at 10^−7 M was more than 60% or the value of IC50 was more than 200 nM.).
Same read-out and setting: the value for `COc1cc(CNC[C@H]2CC[C@@H](Nc3nccc(N(C)C)n3)CC2)cc(F)c1O` [compound 1320] was 3 (Class 3 The value of percent of control at 10^−7 M was more than 60% or the value of IC50 was more than 200 nM.); that for `CN(C)c1nc(N[C@H]2CC[C@@H](CNC(=O)c3ccc(F)c(Cl)c3)CC2)nc2c1CCCC2` [compound 635] was 3 (Class 3 The value of percent of control at 10^−7 M was more than 60% or the value of IC50 was more than 200 nM.); that for `CN(C)c1nc(N[C@H]2CC[C@@H](NCCc3c(-c4ccccc4)[nH]c4ccccc34)CC2)nc2c1CCCC2` [compound 1494] was 3 (Class 3 The value of percent of control at 10^−7 M was more than 60% or the value of IC50 was more than 200 nM.).
On the same count and under the same terms, as for `CCc1cccc(CC)c1NC(=S)N[C@H]1CC[C@@H](Nc2cc(N(C)C)c3ccccc3n2)CC1` [compound 2277], the figure is 1 (Class 1: The value of percent of control at 10^−7 M was less than 40% or the value of IC50 was less than 50 nM.); as for `COc1c(Br)cc(Br)cc1CNC[C@H]1CC[C@@H](Nc2nc3c(c(N(C)C)n2)CCCC3)CC1` [compound 1413], 1 (Class 1: The value of percent of control at 10^−7 M was less than 40% or the value of IC50 was less than 50 nM.).
`CN(C)c1nc(N[C@H]2CC[C@@H](CNCc3c[nH]c4ccc(Br)cc34)CC2)nc2c1CCCC2` [compound 1372]: the class is 1 (Class 1: The value of percent of control at 10^−7 M was less than 40% or the value of IC50 was less than 50 nM.).
Same read-out and setting: the value for `CN(C)c1nc(N[C@H]2CC[C@@H](NC(=O)c3ccc(-c4ccc(Cl)cc4)o3)CC2)nc2c1CCCC2` [compound 973] was 1 (Class 1: The value of percent of control at 10^−7 M was less than 40% or the value of IC50 was less than 50 nM.).
Regarding `CN(C)c1ccnc(N[C@H]2CC[C@@H](CNCc3ccccc3OC(F)(F)F)CC2)n1` [compound 1289], the class was 3 (Class 3 The value of percent of control at 10^−7 M was more than 60% or the value of IC50 was more than 200 nM.).
Consider `CN(C)c1cc(N[C@H]2CC[C@@H](CNCc3cc(C(F)(F)F)cc(Cl)c3F)CC2)nc2ccccc12` [compound 1197], for which the class is 3 (Class 3 The value of percent of control at 10^−7 M was more than 60% or the value of IC50 was more than 200 nM.).
On the same count and under the same terms, as for `CSc1ncccc1C(=O)N[C@H]1CC[C@@H](Nc2nccc(N(C)C)n2)CC1` [compound 260], the figure is 3 (Class 3 The value of percent of control at 10^−7 M was more than 60% or the value of IC50 was more than 200 nM.); as for `CN(C)c1ccnc(N[C@H]2CC[C@@H](CNCc3cc(C(F)(F)F)cc(Cl)c3F)CC2)n1` [compound 1318], 3 (Class 3 The value of percent of control at 10^−7 M was more than 60% or the value of IC50 was more than 200 nM.); as for `CC(C)c1ccccc1NC(=S)N[C@H]1CC[C@@H](Nc2nc3c(c(N(C)C)n2)CCCC3)CC1` [compound 1761], 3 (Class 3 The value of percent of control at 10^−7 M was more than 60% or the value of IC50 was more than 200 nM.).
On the same count and under the same terms, the value for `CN(C)c1ccnc(N[C@H]2CC[C@@H](NC(=O)COCc3ccccc3)CC2)n1` [compound 313] was 3 (Class 3 The value of percent of control at 10^−7 M was more than 60% or the value of IC50 was more than 200 nM.).
The same measure, in the same setting: as for `CN(C)c1nc(N[C@H]2CC[C@@H](CNCCc3ccc(C(C)(C)C)cc3)CC2)nc2c1CCCC2` [compound 1503], the figure is 3 (Class 3 The value of percent of control at 10^−7 M was more than 60% or the value of IC50 was more than 200 nM.); as for `CN(C)c1nc(N[C@H]2CC[C@@H](NC(=S)NCc3cccc(Cl)c3)CC2)nc2c1CCCC2` [compound 1772], 3 (Class 3 The value of percent of control at 10^−7 M was more than 60% or the value of IC50 was more than 200 nM.); as for `CCOC(=O)c1[nH]c2cc(Cl)cc(Cl)c2c1CN[C@H]1CC[C@@H](Nc2nccc(N(C)C)n2)CC1` [compound 1236], 1 (Class 1: The value of percent of control at 10^−7 M was less than 40% or the value of IC50 was less than 50 nM.).
For the compound `Cc1ccc(NC(=S)N[C@H]2CC[C@@H](Nc3cc(N(C)C)c4ccccc4n3)CC2)c(Br)c1` [compound 2278], the class was 3 (Class 3 The value of percent of control at 10^−7 M was more than 60% or the value of IC50 was more than 200 nM.).
The same measure, in the same setting: as for `CN(C)c1nc(N[C@H]2CC[C@@H](CNCc3ccc(N(C)CCC#N)cc3)CC2)nc2c1CCCC2` [compound 1444], the figure is 3 (Class 3 The value of percent of control at 10^−7 M was more than 60% or the value of IC50 was more than 200 nM.); as for `CN(C)c1cc(N[C@H]2CC[C@@H](NC(=O)c3cn(Cc4ccccc4)c4ccccc34)CC2)nc2ccccc12` [compound 691], 3 (Class 3 The value of percent of control at 10^−7 M was more than 60% or the value of IC50 was more than 200 nM.).
On the same count and under the same terms, as for `CN(C)c1ccnc(N[C@H]2CC[C@@H](NC(=O)c3ccc(OC(F)(F)F)c(Cl)c3)CC2)n1` [compound 362], the figure is 3 (Class 3 The value of percent of control at 10^−7 M was more than 60% or the value of IC50 was more than 200 nM.).

Staying with this experiment, now noted: class by percent of control at 10^−7 M or IC50.
`Cc1cnc(N[C@H]2CC[C@@H](NC(=O)c3cccc(F)c3)CC2)nc1N(C)C` [compound 2897, N-(cis-4-{[4-(dimethylamino)-5-methylpyrimidin-2-yl]amino}cyclohexyl)-3-fluorobenzamide]: the class is 1 (Class 1: The value of percent of control at 10^−7 M was less than 40% or the value of IC50 was less than 50 nM.).
Regarding `Cc1cc(N(C)C)nc(N[C@H]2CC[C@@H](C(=O)NCc3ccc(Cl)cc3)CC2)n1` [compound 2816, cis-N-(4-chlorobenzyl)-4-{[4-(dimethylamino)-6-methylpyrimidin-2-yl]amino}cyclohexanecarboxamide], the class is on record as 1 (Class 1: The value of percent of control at 10^−7 M was less than 40% or the value of IC50 was less than 50 nM.).
